# In publication PMC9927415, “Tyrosine Kinase Inhibitors Display Potent Activity against Cryptosporidium parvum” (Microbiology Spectrum, 2022):
# Legend:
# PCTK1 = target: T1, PCTK1 (Homo sapiens, UniProt Q00536); assay: KINOMEscan competitive binding; settings: n=1, read-out: Percent inhibition, PCTK1
# T1 construct: purchased DiscoverX (KINOMEscan)
# panel of 203 kinases [1] = target: T2, panel of 203 kinases (Homo sapiens, UniProt Q96RR4); assay: KINOMEscan competitive binding, whole panel; settings: 10 µM, n=1; kinase CAMKK2; read-out: Percent inhibition CAMKK2
# T2 construct: purchased DiscoverX (KINOMEscan)
# Procedure, shortened: (§1)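 Kinases were expressed as T7 bacteriophage fusions, and test compounds competed with immobilized ATP-site probe ligands for binding. Kinase remaining bound to the solid-support probe was quantified, and values are given as percentage inhibition.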
# panel of 203 kinases [2] = target: T3, panel of 203 kinases (Homo sapiens, UniProt P53779); assay: KINOMEscan competitive binding, whole panel; settings: 10 µM, n=1; kinase JNK3; read-out: Percent inhibition JNK3
# T3 construct: purchased DiscoverX (KINOMEscan)
# Procedure, shortened: as §1
# panel of 203 kinases [3] = target: T4, panel of 203 kinases (Homo sapiens, UniProt Q9Y6E0); assay: KINOMEscan competitive binding, whole panel; settings: 10 µM, n=1; kinase MST3; read-out: Percent inhibition MST3
# T4 construct: purchased DiscoverX (KINOMEscan)
# Procedure, shortened: as §1
# panel of 203 kinases [4] = target: T5, panel of 203 kinases (Homo sapiens, UniProt Q8IU85); assay: KINOMEscan competitive binding, whole panel; settings: 10 µM, n=1; kinase CAMK1D; read-out: Percent inhibition CAMK1D
# T5 construct: purchased DiscoverX (KINOMEscan)
# Procedure, shortened: as §1
# panel of 203 kinases [5] = target: T6, panel of 203 kinases (Homo sapiens, UniProt Q9HBH9); assay: KINOMEscan competitive binding, whole panel; settings: 10 µM, n=1; kinase MKNK2; read-out: Percent inhibition MKNK2
# T6 construct: purchased DiscoverX (KINOMEscan)
# Procedure, shortened: as §1
# panel of 203 kinases [6] = target: T7, panel of 203 kinases (Homo sapiens, UniProt P29376); assay: KINOMEscan competitive binding, whole panel; settings: 10 µM, n=1; kinase LTK; read-out: Percent inhibition LTK
# T7 construct: purchased DiscoverX (KINOMEscan)
# Procedure, shortened: as §1
# panel of 203 kinases [7] = target: T8, panel of 203 kinases (Homo sapiens, UniProt P36894); assay: KINOMEscan competitive binding, whole panel; settings: 10 µM, n=1; kinase BMPR1A; read-out: Percent inhibition BMPR1A
# T8 construct: purchased DiscoverX (KINOMEscan)
# Procedure, shortened: as §1
# panel of 203 kinases [8] = target: T9, panel of 203 kinases (Homo sapiens, UniProt P53667); assay: KINOMEscan competitive binding, whole panel; settings: 10 µM, n=1; kinase LIMK1; read-out: Percent inhibition LIMK1
# T9 construct: purchased DiscoverX (KINOMEscan)
# Procedure, shortened: as §1
# PAK1 = target: T10, PAK1 (Homo sapiens, UniProt Q13153); assay: KINOMEscan competitive binding; settings: n=1, read-out: Percent inhibition, PAK1
# T10 construct: purchased DiscoverX (KINOMEscan)
# Cryptosporidium parvum = assay: In vitro C. parvum growth inhibition assay (Nluc reporter strain in HCT-8 cells); assay type: cell-based; settings: 48 h; for EC50: mean of two independent experiments, dose response 10 nM to 10 μM, read-out: Cp EC50; for inhibition at 10 µM: primary screen, 10 μM compound, three technical replicates, read-out: Mean percent inhibition of C. parvum growth
# Method: Host intestinal epithelial adenocarcinoma (HCT-8) cells were seeded into 96-well plates and grown to 70% confluence in RPMI medium supplemented with L-glutamine, 10% fetal bovine serum (FBS), 0.1 U/mL penicillin, 0.1 μg/mL streptomycin, 0.25 μg/mL amphotericin B and 1 mM sodium pyruvate. The host cell medium was aspirated and replaced with Cryptosporidium infection media (RPMI containing 2% FBS, 0.1 U/mL penicillin, 0.1 μg/mL streptomycin and 0.25 μg/mL amphotericin B) media prior to infection. The HCT-8 cells were infected with bleached and washed Nluc expressing C. parvum oocysts (2,000 oocysts per well) to which 10 μM compounds were added and plates were incubated for 48 h at 37°C, 5% CO2 and luminescence was measured using the protocol described previously ([14], [58]). […] Negative (no drug) and positive control (10 μM nitazoxanide) wells (three replicates each) were also set-up in the same plate. After the incubation, medium was removed and 100 μL of NanoGlo lysis buffer (Promega) was added to the wells followed by incubation for 15 min at 37°C, 5% CO2. The lysate was suspended by pipetting and 100 μL of NanoGlo lysis buffer containing 1:50 of NanoGlo substrate (Promega) was added to each well. […] For the dose response assay, compounds were tested in triplicate wells in two independent experiments and percent luminescence of no drug was calculated.
# EC50 values were calculated using a nonlinear regression (curve fit of log-dose versus response) in GraphPad Prism version 8.
# PKMYT1 = target: T11, PKMYT1 (Homo sapiens, UniProt Q99640); assay: KINOMEscan competitive binding; settings: n=1, read-out: Percent inhibition, PKMYT1
# T11 construct: purchased DiscoverX (KINOMEscan)
# T11 sequence (Q99640 1-499): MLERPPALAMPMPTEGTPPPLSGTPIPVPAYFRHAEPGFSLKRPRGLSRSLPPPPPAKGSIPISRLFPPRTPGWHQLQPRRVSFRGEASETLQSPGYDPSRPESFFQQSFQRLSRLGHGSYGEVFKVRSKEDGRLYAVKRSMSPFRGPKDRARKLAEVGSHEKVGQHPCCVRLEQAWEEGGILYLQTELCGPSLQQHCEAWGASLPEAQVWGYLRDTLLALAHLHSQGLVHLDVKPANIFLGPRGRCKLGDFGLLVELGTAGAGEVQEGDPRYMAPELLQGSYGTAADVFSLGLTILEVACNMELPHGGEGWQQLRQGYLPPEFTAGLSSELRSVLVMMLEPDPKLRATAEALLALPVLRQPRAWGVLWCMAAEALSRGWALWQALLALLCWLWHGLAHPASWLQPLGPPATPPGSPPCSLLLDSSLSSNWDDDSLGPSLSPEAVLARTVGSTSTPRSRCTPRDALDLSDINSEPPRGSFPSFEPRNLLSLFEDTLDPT
# TLK2 = target: T12, TLK2 (Homo sapiens, UniProt Q86UE8); assay: KINOMEscan competitive binding; settings: n=1, read-out: Percent inhibition, TLK2
# T12 construct: purchased DiscoverX (KINOMEscan)
# PKAC-beta = target: T13, PKAC-beta (Homo sapiens, UniProt P22694); assay: KINOMEscan competitive binding; settings: n=1, read-out: Percent inhibition, PKAC-beta
# T13 construct: purchased DiscoverX (KINOMEscan)
# YSK1 = target: T14, YSK1 (Homo sapiens, UniProt O00506); assay: KINOMEscan competitive binding; settings: n=1, read-out: Percent inhibition, YSK1
# T14 construct: purchased DiscoverX (KINOMEscan)
# RPS6KA5(Kin.Dom.1) = target: T15, RPS6KA5(Kin.Dom.1) (Homo sapiens, UniProt O75582); assay: KINOMEscan competitive binding; settings: n=1, read-out: Percent inhibition, RPS6KA5(Kin.Dom.1)
# T15 construct: RPS6KA5(Kin.Dom.1); purchased DiscoverX (KINOMEscan)
# SRPK1 = target: T16, SRPK1 (Homo sapiens, UniProt Q96SB4); assay: KINOMEscan competitive binding; settings: n=1, read-out: Percent inhibition, SRPK1
# T16 construct: purchased DiscoverX (KINOMEscan)
# RET = target: T17, RET (Homo sapiens, UniProt P07949); assay: KINOMEscan competitive binding; settings: n=1, read-out: Percent inhibition, RET
# T17 construct: purchased DiscoverX (KINOMEscan)
# PIM2 = target: T18, PIM2 (Homo sapiens, UniProt Q9P1W9); assay: KINOMEscan competitive binding; settings: n=1, read-out: Percent inhibition, PIM2
# T18 construct: purchased DiscoverX (KINOMEscan)
# T15 sequence (O75582 1-387 limits assumed): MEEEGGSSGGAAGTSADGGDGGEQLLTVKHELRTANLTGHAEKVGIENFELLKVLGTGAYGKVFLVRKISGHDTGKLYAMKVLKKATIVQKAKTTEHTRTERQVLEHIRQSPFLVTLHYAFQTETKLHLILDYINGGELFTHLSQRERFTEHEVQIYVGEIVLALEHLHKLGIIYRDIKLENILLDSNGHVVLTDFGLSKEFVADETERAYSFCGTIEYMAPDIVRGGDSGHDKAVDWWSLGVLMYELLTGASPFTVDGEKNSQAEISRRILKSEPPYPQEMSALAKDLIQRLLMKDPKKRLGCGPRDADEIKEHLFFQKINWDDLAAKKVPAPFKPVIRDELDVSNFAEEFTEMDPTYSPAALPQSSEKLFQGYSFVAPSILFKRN
# T14 sequence (O00506 whole entry): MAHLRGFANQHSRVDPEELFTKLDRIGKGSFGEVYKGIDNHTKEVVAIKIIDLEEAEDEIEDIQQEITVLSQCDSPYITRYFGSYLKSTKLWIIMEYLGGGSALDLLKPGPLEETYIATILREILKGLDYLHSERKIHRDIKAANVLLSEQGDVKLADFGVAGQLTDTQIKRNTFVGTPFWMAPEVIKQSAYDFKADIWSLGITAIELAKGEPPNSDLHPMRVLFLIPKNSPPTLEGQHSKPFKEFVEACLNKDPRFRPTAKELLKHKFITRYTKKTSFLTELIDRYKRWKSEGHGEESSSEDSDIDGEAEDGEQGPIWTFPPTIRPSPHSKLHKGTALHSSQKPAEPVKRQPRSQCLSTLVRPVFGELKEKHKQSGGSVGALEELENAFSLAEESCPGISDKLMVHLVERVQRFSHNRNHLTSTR
# T4 sequence (Q9Y6E0 whole entry): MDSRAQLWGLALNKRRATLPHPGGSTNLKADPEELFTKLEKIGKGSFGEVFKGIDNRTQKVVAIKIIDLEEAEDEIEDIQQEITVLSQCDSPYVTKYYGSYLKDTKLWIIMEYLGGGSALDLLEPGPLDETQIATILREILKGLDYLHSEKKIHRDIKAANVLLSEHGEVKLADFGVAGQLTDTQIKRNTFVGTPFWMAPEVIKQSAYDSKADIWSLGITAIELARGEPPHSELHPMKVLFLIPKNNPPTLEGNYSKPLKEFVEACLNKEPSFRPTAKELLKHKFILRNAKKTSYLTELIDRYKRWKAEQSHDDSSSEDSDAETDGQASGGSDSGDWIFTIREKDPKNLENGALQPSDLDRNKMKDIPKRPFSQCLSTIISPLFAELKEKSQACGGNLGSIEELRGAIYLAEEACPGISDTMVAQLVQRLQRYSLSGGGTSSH
# T1 sequence (Q00536 whole entry): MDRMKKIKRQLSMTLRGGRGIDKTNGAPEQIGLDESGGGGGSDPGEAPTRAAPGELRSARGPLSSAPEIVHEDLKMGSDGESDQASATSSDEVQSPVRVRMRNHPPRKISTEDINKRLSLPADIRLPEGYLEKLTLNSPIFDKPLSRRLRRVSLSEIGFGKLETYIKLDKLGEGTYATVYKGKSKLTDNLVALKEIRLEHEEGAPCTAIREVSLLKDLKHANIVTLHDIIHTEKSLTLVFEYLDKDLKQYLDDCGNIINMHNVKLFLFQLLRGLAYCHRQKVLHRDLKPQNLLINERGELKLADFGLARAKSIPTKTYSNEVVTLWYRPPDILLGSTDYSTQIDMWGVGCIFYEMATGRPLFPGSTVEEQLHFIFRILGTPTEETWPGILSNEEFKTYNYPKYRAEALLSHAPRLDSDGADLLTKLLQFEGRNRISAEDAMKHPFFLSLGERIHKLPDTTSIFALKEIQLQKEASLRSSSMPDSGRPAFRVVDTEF
# T2 sequence (Q96RR4 whole entry): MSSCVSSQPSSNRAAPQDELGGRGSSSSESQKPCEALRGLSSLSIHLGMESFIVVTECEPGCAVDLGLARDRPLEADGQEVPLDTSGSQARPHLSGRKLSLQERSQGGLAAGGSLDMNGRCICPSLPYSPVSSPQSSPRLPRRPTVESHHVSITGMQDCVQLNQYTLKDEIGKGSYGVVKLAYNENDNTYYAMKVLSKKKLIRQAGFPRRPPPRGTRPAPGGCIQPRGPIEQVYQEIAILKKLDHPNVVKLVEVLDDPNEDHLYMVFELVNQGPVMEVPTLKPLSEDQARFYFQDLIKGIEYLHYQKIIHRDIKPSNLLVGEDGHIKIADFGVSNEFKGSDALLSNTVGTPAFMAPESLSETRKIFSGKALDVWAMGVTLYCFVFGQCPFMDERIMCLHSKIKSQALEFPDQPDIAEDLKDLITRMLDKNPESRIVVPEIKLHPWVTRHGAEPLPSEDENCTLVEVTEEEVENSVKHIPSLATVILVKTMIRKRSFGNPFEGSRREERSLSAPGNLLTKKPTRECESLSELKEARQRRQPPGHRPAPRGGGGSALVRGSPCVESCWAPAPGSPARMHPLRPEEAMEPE
# T9 sequence (P53667 whole entry): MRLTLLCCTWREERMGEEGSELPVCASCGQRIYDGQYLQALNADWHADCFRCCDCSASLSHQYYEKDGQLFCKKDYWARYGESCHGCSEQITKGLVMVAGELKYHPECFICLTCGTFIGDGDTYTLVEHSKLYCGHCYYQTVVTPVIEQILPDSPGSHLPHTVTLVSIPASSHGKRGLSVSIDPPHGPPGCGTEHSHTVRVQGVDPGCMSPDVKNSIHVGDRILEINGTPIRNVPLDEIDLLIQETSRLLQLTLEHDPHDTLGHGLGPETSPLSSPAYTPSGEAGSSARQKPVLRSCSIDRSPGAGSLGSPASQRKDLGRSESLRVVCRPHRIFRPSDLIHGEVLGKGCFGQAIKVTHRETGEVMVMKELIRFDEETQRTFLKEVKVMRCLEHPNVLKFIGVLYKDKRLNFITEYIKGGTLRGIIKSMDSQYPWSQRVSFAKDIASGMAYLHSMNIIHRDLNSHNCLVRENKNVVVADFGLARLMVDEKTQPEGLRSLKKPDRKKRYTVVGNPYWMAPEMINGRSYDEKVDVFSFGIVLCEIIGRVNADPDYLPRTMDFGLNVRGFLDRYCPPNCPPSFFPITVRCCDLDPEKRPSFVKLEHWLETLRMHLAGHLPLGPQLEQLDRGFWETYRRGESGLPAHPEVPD
# T16 sequence (Q96SB4 whole entry): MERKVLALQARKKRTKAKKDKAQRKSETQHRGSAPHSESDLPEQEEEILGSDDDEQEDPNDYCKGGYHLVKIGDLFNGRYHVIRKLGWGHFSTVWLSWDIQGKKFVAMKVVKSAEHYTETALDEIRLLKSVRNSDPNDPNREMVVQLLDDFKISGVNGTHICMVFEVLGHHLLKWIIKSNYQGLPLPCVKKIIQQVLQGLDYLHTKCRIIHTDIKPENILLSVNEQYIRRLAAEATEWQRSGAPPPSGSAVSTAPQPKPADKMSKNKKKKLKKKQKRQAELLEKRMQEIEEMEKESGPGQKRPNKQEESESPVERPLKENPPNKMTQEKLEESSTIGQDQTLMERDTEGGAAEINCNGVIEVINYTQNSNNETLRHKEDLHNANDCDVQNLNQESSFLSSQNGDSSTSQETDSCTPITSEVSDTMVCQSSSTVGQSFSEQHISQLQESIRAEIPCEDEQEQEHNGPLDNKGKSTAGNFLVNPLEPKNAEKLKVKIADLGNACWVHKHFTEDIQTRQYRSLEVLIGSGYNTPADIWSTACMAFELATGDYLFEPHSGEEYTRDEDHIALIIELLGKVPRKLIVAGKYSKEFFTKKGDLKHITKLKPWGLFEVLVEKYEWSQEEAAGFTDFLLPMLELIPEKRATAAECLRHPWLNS
# T17 sequence (P07949 29-1114): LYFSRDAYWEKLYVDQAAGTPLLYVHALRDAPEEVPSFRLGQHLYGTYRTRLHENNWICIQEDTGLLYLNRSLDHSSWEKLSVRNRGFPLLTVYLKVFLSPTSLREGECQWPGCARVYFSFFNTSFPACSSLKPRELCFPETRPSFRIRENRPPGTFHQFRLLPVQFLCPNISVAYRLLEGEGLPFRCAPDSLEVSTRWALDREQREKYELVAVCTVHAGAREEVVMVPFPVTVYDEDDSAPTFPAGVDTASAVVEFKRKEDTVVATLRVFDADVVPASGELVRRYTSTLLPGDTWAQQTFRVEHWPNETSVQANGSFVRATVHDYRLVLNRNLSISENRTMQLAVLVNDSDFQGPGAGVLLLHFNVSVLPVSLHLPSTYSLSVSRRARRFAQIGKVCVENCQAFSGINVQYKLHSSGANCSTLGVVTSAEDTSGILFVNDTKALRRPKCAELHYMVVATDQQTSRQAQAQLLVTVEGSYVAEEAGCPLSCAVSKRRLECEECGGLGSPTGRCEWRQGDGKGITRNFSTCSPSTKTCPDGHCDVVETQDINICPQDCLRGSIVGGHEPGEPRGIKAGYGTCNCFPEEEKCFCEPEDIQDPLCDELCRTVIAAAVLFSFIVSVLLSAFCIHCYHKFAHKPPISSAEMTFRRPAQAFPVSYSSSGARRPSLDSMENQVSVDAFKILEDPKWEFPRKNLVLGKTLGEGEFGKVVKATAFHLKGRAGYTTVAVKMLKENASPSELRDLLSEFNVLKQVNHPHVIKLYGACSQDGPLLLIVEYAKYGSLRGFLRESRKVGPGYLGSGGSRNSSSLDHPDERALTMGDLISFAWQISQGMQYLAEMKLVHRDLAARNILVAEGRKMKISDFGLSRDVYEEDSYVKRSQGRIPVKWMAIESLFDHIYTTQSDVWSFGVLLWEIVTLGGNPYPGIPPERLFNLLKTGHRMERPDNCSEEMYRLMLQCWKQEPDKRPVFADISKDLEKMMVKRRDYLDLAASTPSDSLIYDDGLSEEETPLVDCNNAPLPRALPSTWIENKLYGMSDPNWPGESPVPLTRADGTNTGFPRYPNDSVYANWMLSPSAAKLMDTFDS
Compound,inhibition at 10 µM (PCTK1) [%],inhibition at 10 µM (panel of 203 kinases [1]) [%],inhibition at 10 µM (panel of 203 kinases [2]) [%],inhibition at 10 µM (panel of 203 kinases [3]) [%],inhibition at 10 µM (panel of 203 kinases [4]) [%],inhibition at 10 µM (panel of 203 kinases [5]) [%],inhibition at 10 µM (panel of 203 kinases [6]) [%],inhibition at 10 µM (panel of 203 kinases [7]) [%],inhibition at 10 µM (panel of 203 kinases [8]) [%],inhibition at 10 µM (PAK1) [%],EC50 (Cryptosporidium parvum) [nM],inhibition at 10 µM (Cryptosporidium parvum) [%],inhibition at 10 µM (PKMYT1) [%],inhibition at 10 µM (TLK2) [%],inhibition at 10 µM (PKAC-beta) [%],inhibition at 10 µM (YSK1) [%],inhibition at 10 µM (RPS6KA5(Kin.Dom.1)) [%],inhibition at 10 µM (SRPK1) [%],inhibition at 10 µM (RET) [%],inhibition at 10 µM (PIM2) [%]
Cc1ccc(O)cc1Nc1ccnc(Nc2cccc(C(N)=O)c2)n1 [Compound 3],0,0,94.2,0,0,83.9,0,99.2,86.4,79.3,610,94.4,97.9,0,0,0,0,0,100,0
Cc1ccc(O)cc1N(C)c1ccnc(Nc2cccc(S(N)(=O)=O)c2)n1 [Compound 4],96.9,0,96.1,0,70,99.3,69.7,97,91.9,98.5,80,95.5,100,0,77.8,0,0,0,100,0
CN1CCN(c2ccc(Nc3nccc(-c4cnn5ncccc45)n3)cc2C#N)CC1 [Compound 1],100,98,100,99.4,98.3,97,0,0,85.9,99.8,40,95.6,0,98.7,0,90.8,65.7,95.5,89.8,99.7
Clc1ccc(Nc2ncc(-c3ccccc3)s2)cc1 [Compound 10],0,0,0,0,0,65.7,0,0,0,0,420,95.1,0,0,0,0,0,0,0,0
Nc1ncc2c(-c3ccncc3)c[nH]c2n1 [Compound 11],78.2,0,97.1,68.2,0,97.3,0,0,0,0,60,90.8,0,0,0,0,0,0,0,0
Fc1cccc(COc2ccc(Nc3ncnc4c3CN(CCN3CCOCC3)CC4)cc2Cl)c1 [Compound 6],0,0,0,0,0,0,0,0,0,0,240,93.7,0,0,0,0,0,0,0,0
COc1ccc(Nc2nccc(-c3cnn4ncccc34)n2)cc1 [Compound 2],100,96.3,100,72,0,99.4,80.8,0,90.5,0,130,92.9,0,0,0,0,0,90.6,0,81.1
C[C@@H](Oc1cc(-c2cnc3ccccn23)sc1C(N)=O)c1ccccc1Cl [Compound 8],0,81.2,0,0,0,0,0,0,0,0,390,95,81.5,0,0,0,0,96.1,0,0
